# Source: patent publication US11639446B2, “Cationic electrodeposition coating composition” (KANSAI PAINT CO., LTD., priority 2017, dated 2023)
# Assay: Water solubility of catalyst
row,SMILES,Water solubility of catalyst
1,CCCCCCCCn1cc[n+](CCCCCCCC)c1/C([O-])=N\c1ccccc1 [modified imidazole F],Insoluble
2,Cn1cc[n+](C)c1/C([O-])=N\c1ccccc1 [modified imidazole C],Insoluble
3,Cn1cc[n+](C)c1.[Cl-] [reference compound],Soluble
4,"CCCCCCC[CH2][Sn](=[O])[CH2]CCCCCCC [Dioctyltin oxide, reference compound]",Insoluble
5,CCCCCCCC[n+]1ccn(C)c1/C([O-])=N\c1ccccc1 [modified imidazole E],Insoluble
6,"Cn1cc[n+](C)c1C(=O)[O-] [modified imidazole A, 1,3-dimethylimidazolium-2-carboxylate]",Soluble
7,CCCC[n+]1ccn(C)c1C(=O)[O-] [modified imidazole B],Soluble
